Reference: paper PMC8037569, “Neuroprotective Effect of Aurantio-Obtusin, a Putative Vasopressin V1A Receptor Antagonist, on Transient Forebrain Ischemia Mice Model” (International Journal of Molecular Sciences, 2021)
“Also recorded” adds a separate entry of the source.

Assays:
C57BL/6 mice [1] = test: Passive avoidance test after transient forebrain ischemia (BCCAO); assay type: in vivo, mouse; details: 10 mg/kg, p.o., once daily, 1 h to 7 days after BCCAO; for Latency time in test trial of passive avoidance test: vs BCCAO group, p < 0.05
Procedure: (§1) Male C57BL/6 mice (22–26 g, 7 weeks) were purchased from the Orient Co. Ltd., a branch of Charles River Laboratories (Seoul, Korea), and kept in the University Animal Care Unit for 1 week prior to the experiments. The animals were housed five per cage, allowed access to water and food ad libitum; the environment was maintained at a constant temperature (23 ± 1 °C) and humidity (60 ± 10%) under a 12-h light/dark cycle (the lights were on from 07:30 to 19:30 h). Forty mice were divided equally into four groups (sham + vehicle, n = 10; sham + drug, n = 10; bilateral common carotid artery occluded ischemia + vehicle, n = 10; bilateral common carotid artery occluded ischemia + drug, n = 10) for experiment. The treatment and maintenance of the animals were carried out in accordance with the Animal Care and Use Guidelines of Dong-A University, Korea. All in vivo experiments were performed according to the protocols approved by the Institutional Animal Care and Use Committee of Dong-A University (approved protocol numbers: DIACUC-approved-17-20) and were in accordance with the National Institutes of Health guidelines.
C57BL/6 mice were anesthetized with 2.0% isoflurane and 70% nitrous oxide in oxygen and subjected to transient forebrain ischemia. The transient forebrain ischemia was induced by bilateral common carotid artery occlusion (BCCAO) with aneurysm clips for 20 min, and the circulation was restored by removing the clips. Mice that received the same surgical operation without carotid artery clipping served as sham-operated controls. During the surgical procedure, the rectal temperature was maintained at 37 ± 0.5 °C with a heating pad (Biomed S.L., Barcelona, Spain). The regional cerebral blood flow (rCBF) was monitored using laser Doppler flowmetry (Perimed, PF5010, JarFalla, Sweden). […]
Passive avoidance test was conducted 1 h after the last drug administration. […] For the retention trial, the mouse was again placed in the light compartment and the time required to enter the dark compartment was recorded.

C57BL/6 mice [2] = test: Nissl staining, severity of neuronal damage after transient forebrain ischemia (BCCAO); assay type: in vivo, mouse; details: 10 mg/kg, p.o., vs BCCAO group, score 0 to 3, n = 6/group
Procedure: as §1
C57BL/6 mice were anesthetized with 2.0% isoflurane and 70% nitrous oxide in oxygen and subjected to transient forebrain ischemia. The transient forebrain ischemia was induced by bilateral common carotid artery occlusion (BCCAO) with aneurysm clips for 20 min, and the circulation was restored by removing the clips. Mice that received the same surgical operation without carotid artery clipping served as sham-operated controls. During the surgical procedure, the rectal temperature was maintained at 37 ± 0.5 °C with a heating pad (Biomed S.L., Barcelona, Spain). The regional cerebral blood flow (rCBF) was monitored using laser Doppler flowmetry (Perimed, PF5010, JarFalla, Sweden). […] After reperfusion, the animals were placed in a warm incubator (32–33 °C) and returned to their home cages. Aurantio-obtusin, which was dissolved in 10% Tween 80 solution, was administered from 1 h to 7 days after BCCAO (10 mg/kg, p.o., once daily).
One day after the test trial of passive avoidance test, mice were anesthetized with Zoletil 50® (10 mg/kg, i.m.) and then perfused transcardially with a 100 mM phosphate buffer (pH 7.4) followed by ice-cold 4% paraformaldehyde. The brains of the mice were removed and post-fixed in a phosphate buffer (50 mM, pH 7.4) containing 4% paraformaldehyde overnight, then immersed in a 30% sucrose solution (in 50 mM phosphate-buffered saline, PBS), and stored at 4 °C until sectioned. The frozen brains were coronally sectioned on a cryostat at 30 μm and then stored in a storage solution (30% ethylene glycol, 30% glycerin, and 20 mM phosphate buffer) at 4 °C. Hippocampal sections were collected based on the mouse brain atlas.
After the sections were mounted onto gelatin-coated slides, they were stained with 0.5% cresyl violet, dehydrated through graded alcohols (70, 80, 90, and 100% × 2), placed in xylene, and covered with a coverslip after the addition of Histomount media. The number of cells in selected regions (medial CA1, mCA1; dorsal CA1, dCA1; CA2; cortex) were determined using a computerized image analysis system (Leica Microsystems AG, Wetzlar, Germany). The cells were counted in six sections by every eight sections interval (total 48 sections) per animal by a person blind to the treatment group, and the average cell count per section was computed. The degree of damage by the Nissl staining after ischemia was semiquantitatively scored from 0 to 3 (0, normal; 1, <30% of the neurons were irreversibly damaged; 2, 30–60% of the neurons were irreversibly damaged; 3, 60–100% of the neurons were irreversibly damaged).

## COc1c(O)cc2c(c1O)C(=O)c1c(cc(C)c(O)c1OC)C2=O [Aurantio-obtusin, 1,3,7-trihydroxy-2,8-dimethoxy-6-methylanthracene-9,10-dione]
C57BL/6 mice [1]; n = 8/group
  Latency time in training trial of passive avoidance test: no significant differences
C57BL/6 mice [1]
  Latency time in test trial of passive avoidance test: significantly attenuated the reduction of latency time
C57BL/6 mice [1]; listed as aurantio-obtusin
  Latency time in test trial of passive avoidance test: attenuated the latency time; also recorded: attenuated that reduction significantly
C57BL/6 mice [2]
  Severity of neuronal damage in CA2: not in CA2 region
  Severity of neuronal damage in cortex: significantly reduced the severity of damage
  Severity of neuronal damage in dCA1: significantly reduced the severity of damage
  Severity of neuronal damage in mCA1: significantly reduced the severity of damage
C57BL/6 mice [2]; listed as Aurnatio-obtusin
  Severity of neuronal damage in cortex: significantly reduced the severity
  Severity of neuronal damage in dCA1: significantly reduced the severity
  Severity of neuronal damage in mCA1: significantly reduced the severity
